In US20210008015A1, “HEPATOPROTECTENT PHENYLBUTYRATYRATE DRUG CONJUGATES, AND THEIR COMPOSITIONS PREPARATION AND METHODS OF USE THEREOF” (priority 2019, published 2021):
Values joined by “and” are separate entries in the source; they are usually repeats but may differ in a detail not shown here. Equal values may be shown once.

How the values were obtained:
yeast-induced pyrexia = assay: In vivo comparative antipyretic effect study (Baker's yeast induced pyrexia); set-up: species or system SD rats; conditions: for Effect on yeast-induced pyrexia (rise in temperature), 3 hours / Effect on yeast-induced pyrexia (rise in temperature), 6 hours / Effect on yeast-induced pyrexia (rise in temperature), 9 hours: SD rats, Test 300 mg/kg orally, reference 150 mg/kg, Mean ± SD, in °C (unit assumed)
Description: The in vivo pharmacological study conducted the anti-pyretic activity of acetaminophen Phenylbutyrate (APPB) formulations in SD rats against yeast induced pyrexia 12 rats (M&F) (Baker's yeast induced antipyretic model 24 hr) After measuring basal TR of the animals, they were injected with a pyrogenic dose of Baker's yeast (0.135 g/kg, i.p.). TR changes were recorded every hour up to 4 h. […] Animals were randomly divided into three groups 4 rats in each group, Group-A Test (Acetaminophen phenylbutyrate) and Group-B reference (Acetaminophen) and Group-C Control (placebo). Group-A 4 rats (2M & 2F) were treated with Test 300 mg/kg orally given and 150 mg/kg reference compound given to Group-B 4 rats (2M & 2F) and placebo given to group-C. From the time baker yeast injection body temperature will rise keep monitor every 30-60 min once and record. And after treatment (time after treatment with test, reference and placebo) the body temperature was monitored rectally, for next 6 hr (0, 0.5, 1.0, 1.5, 2, 3, 4, and 6) using digital thermometer which can capture 0.1 F body temp ad recorded. […] Yeast injection in experimental animals caused significant rise in body temperature at the various time intervals as recorded rectally with the help of a tele-thermometer.

formaldehyde pain model = assay: In vivo comparative pain-relieving model study (formaldehyde pain model); set-up: species or system Rabbits; conditions: Test 300 mg/kg orally, reference 150 mg/kg; for Amplitude of rubbing activity, Mean / Amplitude of rubbing activity, Sum: group of 4 rabbits; for Amplitude of rubbing activity, Mean / Amplitude of rubbing activity, Sum / Amplitude of rubbing activity: 60 min post dose of formalin; for No. of rubbings / Amplitude of rubbing activity: individual rabbit; for No. of rubbings: 60 min post dose of formalin (2.5%, 0.1 ml into paw)
Description: 12 Rabbits (M&F) (formaldehyde pain model 6 hr) were divided into 3 groups 4 rabbits in each group, Group-A Test (Acetaminophen phenylbutyrate) and Group-B reference (Acetaminophen) and Group-C Control (placebo). Group-A 4 rabbits (2M & 2F) were treated with Test 300 mg/kg orally given and 150 mg/kg; reference compound given to Group-B 4 rabbits (2M & 2F) and placebo given to group-C after 15 min each rat was dosed with 2.5% formalin in saline solution 0.1 ml was injected into middle of paw, and monitor for number of licking or scratching's happened with each animal in all groups and compared each group with other in the below table.

Sprague Dawley (SD) rats = assay: In vivo safety and dose ranging study

| Compound | Effect on yeast-induced pyrexia (rise in temperature), 3 hours (yeast-induced pyrexia) | Effect on yeast-induced pyrexia (rise in temperature), 6 hours (yeast-induced pyrexia) | Effect on yeast-induced pyrexia (rise in temperature), 9 hours (yeast-induced pyrexia) | attenuation of rise in temperature, in words (yeast-induced pyrexia; all time intervals) | Amplitude of rubbing activity, Mean (formaldehyde pain model) | Amplitude of rubbing activity, Sum (formaldehyde pain model) | No. of rubbings (formaldehyde pain model) | Amplitude of rubbing activity (formaldehyde pain model) | attenuation of rise in temperature, in words (yeast-induced pyrexia; 6 and 9 h after yeast injection, in comparison to placebo control group) | attenuation of rise in temperature, in words (yeast-induced pyrexia; 3 h after yeast injection) | treatment related clinical signs (Sprague Dawley (SD) rats; 500, 1000 and 1500 mg/kg/per day orally for 5 days, M&F SD rats) | survival (Sprague Dawley (SD) rats; 500, 1000 and 1500 mg/kg/per day orally for 5 days, observation for one week after treatment) | overall safety conclusion (Sprague Dawley (SD) rats; 500-1500 mg/kg/per day orally for 5 days) |
| --- | --- | --- | --- | --- | --- | --- | --- | --- | --- | --- | --- | --- | --- |
| CC(=O)Nc1ccc(O)cc1 [Acetaminophen, N-(4-hydroxyphenyl)acetamide, reference compound] | 0.83 ± 0.08 | 1.31 ± 0.23 | 1.91 ± 0.14 | attenuated the rise in temperature to a significant extent at all time intervals | 2.78 s | 16.7 s | 1 (2×) and 2 (2×) | 3.1 s and 6.7 s and 2.6 s and 4.3 s |  |  |  |  |  |
| CC(=O)N(C(=O)CCCc1ccccc1)c1ccc(O)cc1 [APPB, N-(4-phenylbutanoyl)-N-(4-hydroxyphenyl)acetanyide] | 1.21 ± 0.13 | 1.48 ± 0.08 | 1.83 ± 0.06 |  | 3.62 s | 36.19 s | 4 and 3 and 2 and 1 | 12.64 s and 11.84 s and 6.69 s and 5.02 s | attenuated the raise in temperature in a highly significant manner | significantly attenuated the rise in temperature | No treatment related clinical signs were noticed | All group animals were survived | safe for prolonged use at higher doses |
